Measurements taken from patent publication EP2257297B1, “COMPOUNDS FOR USE IN THE TREATMENT OF ACNE, SEBORRHOEA AND SEBHORROEIC DERMATITIS, OR FOR REDUCING SEBUM SECRETION” (priority 2008, dated 2009).

Molecular target: T1, human MC5R (Homo sapiens, UniProt P33032)
T1 construct: purchased Perkin Elmer RBXMC5M400UA
Test: Human MC5R radioligand binding assay ([125I] NDP-MSH displacement, hMC5R membranes)
Conditions: hMC5R assay as in Example 102; compounds tested as trifluoroacetate or hydrochloride salts, or as free base
Procedure: After incubation for 10 mins the phosphate buffer containing the iodine was added to NDP-MSH (10 ul at 1 mg/mL) in a separate eppendorf tube. This was incubated for a further 10 mins.
Resuspended membranes were kept on ice until they were added to the wells of the plate.
Assays were performed in 96 well polypropylene plates. […] This was incubated for 1 hr at 37 °C. Non-specific binding was determined with […] NDP-MSH. Plates were filtered using a Tomtec cell harvester with GF/A filters (Wallac) (presoaked in 0.6% polyethylenimine) and washed three times with 1.0 mL ice-cold wash buffer (the above incubation buffer without 1,10-phenanthroline and Complete™ protease inhibitor tablet). The filters were dried in a 37 °C oven, placed in a sample bag and 5 mL Betaplatescint (Wallac) was added. Prepared filters were counted in cassettes in a Microbeta Trilux (Wallac) for 1 min. […] Data analysis was performed using GraphPad Prism 4, employing competition binding with a single site model and a fixed Hill coefficient. The following equation was used: Y = Bottom + (Top-Bottom)/1/10^(X-logEC50), where X = log(concentration) and Y = binding to fit the data.

T1 sequence (P33032 whole entry): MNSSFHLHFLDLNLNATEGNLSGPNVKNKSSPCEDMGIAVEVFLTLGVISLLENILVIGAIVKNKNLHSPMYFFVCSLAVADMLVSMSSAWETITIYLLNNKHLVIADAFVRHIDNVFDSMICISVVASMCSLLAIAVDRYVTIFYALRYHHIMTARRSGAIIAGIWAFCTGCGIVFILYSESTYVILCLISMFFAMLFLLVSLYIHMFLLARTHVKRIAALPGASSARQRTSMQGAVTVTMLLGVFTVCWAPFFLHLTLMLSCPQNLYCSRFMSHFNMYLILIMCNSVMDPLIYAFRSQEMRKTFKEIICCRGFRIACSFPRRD

NCC[C@@H]1N[C@H](CNC(=O)c2ccc3cc(F)ccc3c2)CCN(CC(c2ccccc2)c2ccccc2)C1=O [Compound 31, N-(((3S,5S)-3-(2-aminoethyl)-1-(2,2-diphenylethyl)-2-oxo-1,4-diazepan-5-yl)methyl)-6-fluoro-2-naphthamide] and CC(C)NCCC[C@@H]1N[C@H](CNC(=O)c2ccc3ccccc3c2)CCN(CC(c2ccccc2)c2ccccc2)C1=O [Compound 65, N-(((3S,5S)-1-(2,2-diphenylethyl)-3-(3-(isopropylamino)propyl)-2-oxo-1,4-diazepan-5-yl)methyl)-2-naphthamide] cannot be ordered by IC50: under 1 µM for the first, under 0.1 µM for the second.

N=C(N)NCCC[C@@H]1N[C@H](CNC(=O)/C=C/c2cccc(C(F)(F)F)c2)CCN(CC(c2ccccc2)c2ccccc2)C1=O [Compound 192, (E)-N-(((3S,5S)-1-(2,2-diphenylethyl)-3-(3-guanidinopropyl)-2-oxo-1,4-diazepan-5-yl)methyl)-3-(3-(trifluoromethyl)phenyl)acrylamide] and COc1cccc(/C=C/C(=O)NC[C@@H]2CCN(CC(c3ccccc3)c3ccccc3)C(=O)[C@H](CCCNC(=N)N)N2)c1 [Compound 180, (E)-N-(((3S,5S)-1-(2,2-diphenylethyl)-3-(3-guanidinopropyl)-2-oxo-1,4-diazepan-5-yl)methyl)-3-(3-methoxyphenyl)acrylamide] cannot be ordered by IC50: under 1 µM for the first, under 1 µM for the second.

N=C(N)NCCC[C@@H]1N[C@H](CNC(=O)c2ccc(Cl)cc2Cl)CCN(CC(c2ccccc2)c2ccccc2)C1=O [Compound 136, 2,4-dichloro-N-(((3S,5S)-1-(2,2-diphenylethyl)-3-(3-guanidinopropyl)-2-oxo-1,4-diazepan-5-yl)methyl)benzamide] and N=C(N)NCCC[C@@H]1N[C@H](CNC(=O)c2cc(Cl)ccc2Cl)CCN(CC(c2ccccc2)c2ccccc2)C1=O [Compound 137, 2,5-dichloro-N-(((3S,5S)-1-(2,2-diphenylethyl)-3-(3-guanidinopropyl)-2-oxo-1,4-diazepan-5-yl)methyl)benzamide] cannot be ordered by IC50: under 0.1 µM for the first, under 1 µM for the second.

CCC(CN1CCC(CNC(=O)c2ccc3cc(Cl)ccc3c2)N[C@@H](C2CCN(CCC(C)C)CC2)C1=O)c1ccccc1 (stereo partly shown) [Compound 473] and O=C(NCC[C@@H]1CCN(CC(c2ccccc2)c2ccccc2)C(=O)[C@H](CCN2CCCCC2)N1)c1ccc(Cl)c(Cl)c1 [Compound 312, 3,4-dichloro-N-(2-((3S,5R)-1-(2,2-diphenylethyl)-2-oxo-3-(2-(piperidin-1-yl)ethyl)-1,4-diazepan-5-yl)ethyl)benzamide] cannot be ordered by IC50: under 0.1 µM for the first, under 1 µM for the second.

Cc1ccc(C(=O)NC[C@@H]2CCN(CC(c3ccccc3)c3ccccc3)C(=O)[C@H](CCCN)N2)cc1C [Compound 223, N-(((3S,5S)-3-(3-aminopropyl)-1-(2,2-diphenylethyl)-2-oxo-1,4-diazepan-5-yl)methyl)-3,4-dimethylbenzamide] and CC1=NN(c2ccc(C(=O)NC[C@@H]3CCN(CC(c4ccccc4)c4ccccc4)C(=O)[C@H](CCCN)N3)cc2)C(=O)C1 [Compound 259, N-(((3S,5S)-3-(3-aminopropyl)-1-(2,2-diphenylethyl)-2-oxo-1,4-diazepan-5-yl)methyl)-4-(3-methyl-5-oxo-4,5-dihydro-1H-pyrazol-1-yl)benzamide] cannot be ordered by IC50: under 1 µM for the first, under 1 µM for the second.

O=C(NC[C@@H]1CCN(Cc2cc(Cl)cc(Cl)c2)C(=O)[C@H](CN2CCCC2)N1)c1ccc2ccccc2c1 [Compound 372, N-(((3S,5S)-1-(3,5-dichlorobenzyl)-2-oxo-3-(pyrrolidin-1-ylmethyl)-1,4-diazepan-5-yl)methyl)-2-naphthamide] and O=C(NC[C@@H]1CCN(Cc2cc(Cl)cc(Cl)c2)C(=O)[C@H](CN2CCCCC2)N1)c1ccc(Cl)c(Cl)c1 [Compound 367, 3,4-dichloro-N-(((3S,5S)-1-(3,5-dichlorobenzyl)-2-oxo-3-(piperidin-1-ylmethyl)-1,4-diazepan-5-yl)methyl)benzamide] cannot be ordered by IC50: under 1 µM for the first, under 1 µM for the second.

NCCC[C@@H]1N[C@H](CNC(=O)/C=C/c2ccc3ccccc3c2)CCN(CC(c2ccccc2)c2ccccc2)C1=O [Compound 235, (E)-N-(((3S,5S)-3-(3-aminopropyl)-1-(2,2-diphenylethyl)-2-oxo-1,4-diazepan-5-yl)methyl)-3-(naphthalen-2-yl)acrylamide] and Cc1ccc(/C=C/C(=O)NC[C@@H]2CCN(CC(c3ccccc3)c3ccccc3)C(=O)[C@H](CCCN)N2)cc1 [Compound 219, (E)-N-(((3S,5S)-3-(3-aminopropyl)-1-(2,2-diphenylethyl)-2-oxo-1,4-diazepan-5-yl)methyl)-3-p-tolylacrylamide] cannot be ordered by IC50: under 1 µM for the first, under 0.1 µM for the second.

CC(C)NCC[C@@H]1N[C@H](CCNC(=O)c2ccc(Cl)c(Cl)c2)CCN(CC(c2ccccc2)c2ccccc2)C1=O [Compound 362, 3,4-dichloro-N-(2-((3S,5R)-1-(2,2-diphenylethyl)-3-(2-(isopropylamino)ethyl)-2-oxo-1,4-diazepan-5-yl)ethyl)benzamide] and CC(C)(C)c1ccc(C(=O)NC[C@@H]2CCN(CC(c3ccccc3)c3ccccc3)C(=O)[C@H](CCCNC(=N)N)N2)cc1 [Compound 145, 4-tert-butyl-N-(((3S,5S)-1-(2,2-diphenylethyl)-3-(3-guanidinopropyl)-2-oxo-1,4-diazepan-5-yl)methyl)benzamide] cannot be ordered by IC50: under 1 µM for the first, under 1 µM for the second.

CCC(CC)CN1CC[C@@H](CNC(=O)c2ccc3ccccc3c2)N[C@@H](CCN)C1=O [Compound 54, N-(((3S,5S)-3-(2-aminoethyl)-1-(2-ethylbutyl)-2-oxo-1,4-diazepan-5-yl)methyl)-2-naphthamide] and CNC(=N)NCCC[C@@H]1N[C@H](CNC(=O)c2ccc3ccccc3c2)CCN(CC(c2ccccc2)c2ccccc2)C1=O [Compound 67, N-(((3S,5S)-1-(2,2-diphenylethyl)-3-(3-(3-methylguanidino)propyl)-2-oxo-1,4-diazepan-5-yl)methyl)-2-naphthamide] cannot be ordered by IC50: under 1 µM for the first, under 0.01 µM for the second.

N=C(N)NCCC[C@@H]1N[C@H](CNC(=O)/C=C/c2ccc(F)cc2)CCN(CC(c2ccccc2)c2ccccc2)C1=O [Compound 199, (E)-N-(((3S,5S)-1-(2,2-diphenylethyl)-3-(3-guanidinopropyl)-2-oxo-1,4-diazepan-5-yl)methyl)-3-(4-fluorophenyl)acrylamide] and N=C(N)NCCC[C@@H]1N[C@H](CNC(=O)c2cnc3ccccc3n2)CCN(CC(c2ccccc2)c2ccccc2)C1=O [Compound 113, N-(((3S,5S)-1-(2,2-diphenylethyl)-3-(3-guanidinopropyl)-2-oxo-1,4-diazepan-5-yl)methyl)quinoxaline-2-carboxamide] cannot be ordered by IC50: under 0.1 µM for the first, under 1 µM for the second.

N=C(N)NCCC[C@@H]1N[C@H](CNC(=O)C2CCCCC2)CCN(CC(c2ccccc2)c2ccccc2)C1=O [Compound 139, N-(((3S,5S)-1-(2,2-diphenylethyl)-3-(3-guanidinopropyl)-2-oxo-1,4-diazepan-5-yl)methyl)cyclohexanecarboxamide] and NCC[C@@H]1N[C@H](CNC(=O)c2ccc(Cl)c(Cl)c2)CCN(Cc2cc(Cl)cc(Cl)c2)C1=O [Compound 325, N-(((3S,5S)-3-(2-aminoethyl)-1-(3,5-dichlorobenzyl)-2-oxo-1,4-diazepan-5-yl)methyl)-3,4-dichlorobenzamide] cannot be ordered by IC50: under 10 µM for the first, under 1 µM for the second.
